Experimental data from patent US9302999B2, “Substituted triazoles as herbicides” (E. I. DU PONT DE NEMOURS AND COMPANY, priority 2012, dated 2016).
Where two headings read alike, the source gives them in different places.

Experiments:
soybean (Glycine max) = test: Test C pre-/postemergence: soybean; format: in vivo
Outline: (§1)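 Visual injury scored 0–100 (100 = complete control) against untreated controls after 13–15 greenhouse days. Surfactant-containing solvent formulations applied either to soil after sowing (loam/sand) or over 1- to 4-leaf plants, 2–18 cm tall.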

[1] = tested on: sedge, umbrella (small-flower umbrella sedge Cyperus difformis); test: Test B flooded paddy: sedge, umbrella; format: in vivo; conditions: Flood, applied to paddy water at 2-leaf stage, visually evaluated after 13 to 15 days
Outline: (§2)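 Two-leaf-stage plants, pots flooded (3 cm above soil) and treated through the water, which stayed at that depth. After 13–15 days in greenhouse conditions, visual assessment versus controls: 0 is no effect, 100 complete control, dash means no result.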

[2] = tested on: nutsedge, yellow (yellow nutsedge, Cyperus esculentus); test: Test C pre-/postemergence: nutsedge, yellow; format: in vivo
Outline: as §1

[3] = tested on: ducksalad (Heteranthera limosa); test: Test B flooded paddy: ducksalad; format: in vivo; conditions: Flood, applied to paddy water at 2-leaf stage, visually evaluated after 13 to 15 days
Outline: as §2

[4] = tested on: morningglory (Ipomoea spp.); test: Test A pre-/postemergence: morningglory; format: in vivo; conditions: for pest or weed control at 125 g/ha / pest or weed control at 500 g/ha: Ipomoea, 240 h
Outline: (§3)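 Pre: directed soil spray after planting in loam + sand. Post: same formulation (non-phytotoxic solvent + surfactant) on 1–2-leaf plants, 2–10 cm. Greenhouse ~10 d; visual injury 0–100 vs untreated.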

[5] = tested on: velvetleaf (Abutilon theophrasti); test: Test C pre-/postemergence: velvetleaf; format: in vivo
Outline: as §1

[6] = tested on: foxtail, giant (giant foxtail, Setaria faberii); test: Test A pre-/postemergence: foxtail, giant; format: in vivo; conditions: for pest or weed control at 125 g/ha / pest or weed control at 500 g/ha: Setaria faberi, 240 h
Outline: as §3

Barnyardgrass = test: Test C preemergence: barnyardgrass; format: in vivo, Echinochloa crus-galli
Text: Seeds of plant species selected from blackgrass (Alopecurus myosuroides), bromegrass, downy (downy bromegrass, Bromus tectorum), foxtail, green (green foxtail, Setaria viridis), ryegrass, Italian (Italian ryegrass, Lolium multiflorum), winter wheat (Triticum aestivum), wild oat (Avena fatua), galium (catchweed bedstraw, Galium aparine), bermudagrass (Cynodon dactylon), surinam grass (Brachiaria decumbens), cocklebur (common cocklebur, Xanthium strumarium), corn (Zea mays), large crabgrass (Digitaria sanguinalis), woolly cupgrass (Eriochloa villosa), foxtail, giant (giant foxtail, Setaria faberii), goosegrass (Eleusine indica), johnsongrass (Sorghum halepense), kochia (Kochia scoparia), lambsquarters (Chenopodium album), morningglory (Ipomoea coccinea), nightshade (eastern black nightshade, Solanum ptycanthum), nutsedge, yellow (yellow nutsedge, Cyperus esculentus), pigweed (Amaranthus retroflexus), ragweed (common ragweed, Ambrosia elation), soybean (Glycine max), common (oilseed) sunflower (Helianthus annuus), Russian thistle (Salsola kali) and velvetleaf (Abutilon theophrasti) were planted into a blend of loam soil and sand and treated preemergence with test chemicals formulated in a non-phytotoxic solvent mixture which included a surfactant.
Treated plants and controls were maintained in a greenhouse for 13 to 15 days, after which time all species were compared to controls and visually evaluated. Plant response ratings, summarized in Table C, are based on a scale of 0 to 100 where 0 is no effect and 100 is complete control. A dash (-) response means no test result.

[7] = tested on: crabgrass, large (large crabgrass, Digitaria sanguinalis); test: Test A pre-/postemergence: crabgrass, large; format: in vivo; conditions: for pest or weed control at 125 g/ha / pest or weed control at 500 g/ha: Digitaria sanguinalis, 240 h
Outline: as §3

[8] = tested on: ragweed (common ragweed, Ambrosia elation); test: Test C pre-/postemergence: ragweed; format: in vivo
Outline: as §1

kochia (Kochia scoparia) = test: Test C pre-/postemergence: kochia; format: in vivo
Outline: as §1

[9] = Preemergence, 31 g ai/ha, scale of 0 to 100, 0 is no effect, 100 is complete control
[10] = Preemergence, 62 g ai/ha, scale of 0 to 100, 0 is no effect, 100 is complete control
[11] = Preemergence, 125 g ai/ha, scale 0 to 100, 0 no effect, 100 complete control
[12] = Preemergence, 250 g ai/ha, scale 0 to 100, 0 no effect, 100 complete control
[13] = Postemergence, 125 g ai/ha, 0 to 100 scale, 0 is no effect, 100 is complete control
[14] = Postemergence, 500 g ai/ha, 0 to 100 scale, 0 is no effect, 100 is complete control
[15] = Preemergence, 125 g ai/ha, 0 to 100 scale where 0 is no effect and 100 is complete control
[16] = Preemergence, 500 g ai/ha, 0 to 100 scale (0 no effect, 100 complete control)
[17] = Postemergence, 31 g ai/ha, scale 0 to 100 (0 no effect, 100 complete control)
[18] = Postemergence, 62 g ai/ha, scale 0 to 100 (0 no effect, 100 complete control)
[19] = Postemergence, 125 g ai/ha, scale 0 to 100, 0 no effect, 100 complete control
[20] = Postemergence, 250 g ai/ha, scale 0 to 100 (0 no effect, 100 complete control)
[21] = Preemergence, 31 g ai/ha, scale 0 (no effect) to 100 (complete control)
[22] = Preemergence, 62 g ai/ha, scale 0 to 100, 0 no effect, 100 complete control

CCOCc1nn(-c2ccc(F)cc2)nc1Oc1ccnc(C(F)(F)F)c1 [Compound 163]
Plant response rating, Soybean (soybean (Glycine max); [9]): 5 | Plant response rating, Soybean (soybean (Glycine max); [10]): 5 | Plant response rating, Soybean (soybean (Glycine max); [11]): 10 | Plant response rating, Soybean (soybean (Glycine max); [12]): 20 | Plant response rating, Sedge, Umbrella (0 to 100 scale, 0 is no effect, 100 is complete control) ([1]; 125 g ai/ha): 80 | Plant response rating, Nutsedge, Yellow [2, 9]: 0 | Plant response rating, Nutsedge, Yellow [2, 10]: 0 | Plant response rating, Nutsedge, Yellow [2, 11]: 20 | Plant response rating, Nutsedge, Yellow [2, 12]: 75 | Plant response rating, Ducksalad (0 to 100 scale, 0 is no effect, 100 is complete control) ([3]; 125 g ai/ha): 70 | Plant response rating, Morningglory [4, 13]: 30 | Morningglory plant response rating [4, 14]: 80 | Plant response rating, Morningglory [4, 15]: 10 | Plant response rating, Morningglory [4, 16]: 30 | Plant response rating, Velvetleaf [5, 9]: 0 | Plant response rating, Velvetleaf [5, 10]: 10 | Plant response rating, Velvetleaf [5, 11]: 20 | Plant response rating, Velvetleaf [5, 12]: 75 | Plant response rating, Foxtail, Giant [6, 13]: 60 | Foxtail, Giant plant response rating [6, 14]: 90 | Plant response rating, Foxtail, Giant [6, 15]: 100 | Plant response rating, Foxtail, Giant [6, 16]: 100 | Plant response rating, Barnyardgrass (Barnyardgrass; 31 g ai/ha, scale of 0 to 100, 0 is no effect, 100 is complete control): 10 | Plant response rating, Barnyardgrass (Barnyardgrass; 62 g ai/ha, scale of 0 to 100, 0 is no effect, 100 is complete control): 25 | Plant response rating, Barnyardgrass (Barnyardgrass; 125 g ai/ha, scale 0 to 100, 0 no effect, 100 complete control): 75 | Plant response rating, Crabgrass, Large [7, 13]: 70 | Crabgrass, Large plant response rating [7, 14]: 100 | Plant response rating, Crabgrass, Large [7, 15]: 100 | Plant response rating, Crabgrass, Large [7, 16]: 100 | Plant response rating, Ragweed [8, 9]: 0 | Plant response rating, Ragweed [8, 10]: 10 | Plant response rating, Ragweed [8, 11]: 20 | Plant response rating, Ragweed [8, 12]: 35

CCOc1nn(-c2ccc(F)cc2)nc1Cc1ccnc(C(F)(F)F)c1 [Compound 196, 4-[[5-ethoxy-2-(4-fluorophenyl)-2H-1,2,3-triazol-4-yl]methyl]-2-(trifluoromethyl)pyridine]
Plant response rating, Soybean (soybean (Glycine max); [17]): 45 | Plant response rating, Soybean (soybean (Glycine max); [18]): 50 | Plant response rating, Soybean (soybean (Glycine max); [19]): 65 | Plant response rating, Soybean (soybean (Glycine max); [20]): 70 | Plant response rating, Soybean (soybean (Glycine max); [21]): 10 | Plant response rating, Soybean (soybean (Glycine max); [22]): 15 | Plant response rating, Soybean (soybean (Glycine max); [11]): 30 | Plant response rating, Soybean (soybean (Glycine max); [12]): 35 | Plant response rating, Sedge, Umbrella (0 to 100 scale, 0 is no effect, 100 is complete control) ([1]; 250 g ai/ha): 100 | Plant response rating, Nutsedge, Yellow [2, 17]: 10 | Plant response rating, Nutsedge, Yellow [2, 18]: 10 | Plant response rating, Nutsedge, Yellow [2, 19]: 15 | Plant response rating, Nutsedge, Yellow [2, 20]: 20 | Plant response rating, Nutsedge, Yellow [2, 21]: 0 | Plant response rating, Nutsedge, Yellow [2, 22]: 0 | Plant response rating, Nutsedge, Yellow [2, 11]: 5 | Plant response rating, Nutsedge, Yellow [2, 12]: 10 | Plant response rating, Ducksalad (0 to 100 scale, 0 is no effect, 100 is complete control) ([3]; 250 g ai/ha): 100 | pest or weed control at 125 g/ha ([4]; post-emergence, Postemergence, 125 g ai/ha, 0 to 100 scale, 0 is no effect, 100 is complete control, read-out: Plant response rating, Morningglory): 100% | pest or weed control at 500 g/ha ([4]; post-emergence, Postemergence, 500 g ai/ha, 0 to 100 scale, 0 is no effect, 100 is complete control, read-out: Morningglory plant response rating): 100% | pest or weed control at 125 g/ha ([4]; pre-emergence, Preemergence, 125 g ai/ha, 0 to 100 scale where 0 is no effect and 100 is complete control, read-out: Plant response rating, Morningglory): 60% | pest or weed control at 500 g/ha ([4]; pre-emergence, Preemergence, 500 g ai/ha, 0 to 100 scale (0 no effect, 100 complete control), read-out: Plant response rating, Morningglory): 90% | Plant response rating, Velvetleaf [5, 17]: 55 | Plant response rating, Velvetleaf [5, 18]: 65 | Plant response rating, Velvetleaf [5, 19]: 75 | Plant response rating, Velvetleaf [5, 20]: 80 | Plant response rating, Velvetleaf [5, 21]: 60 | Plant response rating, Velvetleaf [5, 22]: 70 | Plant response rating, Velvetleaf [5, 11]: 80 | Plant response rating, Velvetleaf [5, 12]: 100 | Plant response rating, Kochia (kochia (Kochia scoparia); [17]): 85 | Plant response rating, Kochia (kochia (Kochia scoparia); [18]): 90 | Plant response rating, Kochia (kochia (Kochia scoparia); [19]): 90 | Plant response rating, Kochia (kochia (Kochia scoparia); [20]): 90 | Plant response rating, Kochia (kochia (Kochia scoparia); [21]): 90 | Plant response rating, Kochia (kochia (Kochia scoparia); [22]): 98 | Plant response rating, Kochia (kochia (Kochia scoparia); [11]): 98 | Plant response rating, Kochia (kochia (Kochia scoparia); [12]): 98 | pest or weed control at 125 g/ha ([6]; post-emergence, Postemergence, 125 g ai/ha, 0 to 100 scale, 0 is no effect, 100 is complete control, read-out: Plant response rating, Foxtail, Giant): 90% | pest or weed control at 500 g/ha ([6]; post-emergence, Postemergence, 500 g ai/ha, 0 to 100 scale, 0 is no effect, 100 is complete control, read-out: Foxtail, Giant plant response rating): 90% | pest or weed control at 125 g/ha ([6]; pre-emergence, Preemergence, 125 g ai/ha, 0 to 100 scale where 0 is no effect and 100 is complete control, read-out: Plant response rating, Foxtail, Giant): 100% | pest or weed control at 500 g/ha ([6]; pre-emergence, Preemergence, 500 g ai/ha, 0 to 100 scale (0 no effect, 100 complete control), read-out: Plant response rating, Foxtail, Giant): 100% | pest or weed control at 125 g/ha ([7]; post-emergence, Postemergence, 125 g ai/ha, 0 to 100 scale, 0 is no effect, 100 is complete control, read-out: Plant response rating, Crabgrass, Large): 90% | pest or weed control at 500 g/ha ([7]; post-emergence, Postemergence, 500 g ai/ha, 0 to 100 scale, 0 is no effect, 100 is complete control, read-out: Crabgrass, Large plant response rating): 90% | pest or weed control at 125 g/ha ([7]; pre-emergence, Preemergence, 125 g ai/ha, 0 to 100 scale where 0 is no effect and 100 is complete control, read-out: Plant response rating, Crabgrass, Large): 100% | pest or weed control at 500 g/ha ([7]; pre-emergence, Preemergence, 500 g ai/ha, 0 to 100 scale (0 no effect, 100 complete control), read-out: Plant response rating, Crabgrass, Large): 100% | Plant response rating, Ragweed [8, 17]: 70 | Plant response rating, Ragweed [8, 18]: 85 | Plant response rating, Ragweed [8, 19]: 90 | Plant response rating, Ragweed [8, 20]: 90 | Plant response rating, Ragweed [8, 21]: 40 | Plant response rating, Ragweed [8, 22]: 60 | Plant response rating, Ragweed [8, 11]: 80 | Plant response rating, Ragweed [8, 12]: 90
